Reference: US6861220B2, “Genetic screening methods” (Ramot University Authority for Applied Research & …, priority 1999, dated 2005)

Tested on: Clone 12 cells (HGPRT-deficient HT1080 fibrosarcoma cells)
Assay: Chemical synthetic lethality screen: retention of HGPRT-tpzGFP survival plasmid (tpzGFP/sphGFP fluorescence ratio) in microplates
Assay type: cell-based, human
Details: for detection of chemical synthetic lethality (survival plasmid retention) in blind large-scale test: Clone 12 in 1200 wells, medium lacking selection, chemicals added at random together with guanine (FIG. 9)
Procedure: For pIS, selection in G418 (Calbiochem) was carried out at 400 microg/ml, while maintenance was at 50 microg/ml. For the HGPRT-tpzGFP survival plasmid, selection in hygromycin B (Sigma) was at 150 microg/ml while maintenance was at 50 microg/ml. […] GATA medium was DMEM with 10% dialyzed FCS, plus 3.5 microM guanine-HCI, 0.4 microM aminopterin, 16 microM thymidine and 35 microM adenine.
For fluorescent scanning, cells were trypsinized and distributed at 30,000 cells/well into 96 well microplates (TPP). Growth medium was changed twice a week and plates were grown for up to 75 days. […] Plates were prepared for scanning by replacement of medium in wells with Hank's balanced salt solution without phenol red. […] Plates were scanned with an FL600 microplate fluorescence reader using the KC4 software (Biotek Instruments). Excitation for sphGFP was at 380 nin with a bandpass of 20 nm, while emission was measured at 508 nm with a bandpass of 40 nm.
Excitation of tpzGFP was at 495 nm with a bandpass of 20 mn, while emission was measured at 535 nm with a bandpass of 40 nm. To avoid possible artifacts, all wells within a given experiment were assayed for the fluorescence of the two GFP mutants using fixed sensitivities. Integrated sphGFP was used as an internal control for the number of cells. This was achieved by dividing the relative fluorescence resulting from the episomal tpzGFP vector by the relative fluorescence for sphGFP for each well. This ratio was then divided by the average fluorescence ratio for cells maintained under hygromycin B or HAT selection, resulting in a value representing percent remaining fluorescence for each well as compared to wells maintained under continuous selection. The data points are an average for all wells and the calculated standard deviation. Cells were returned to growth medium immediately following scanning.
Its loss or retention can be determined by measuring its normalized fluorescence in a microplate reader. It was then necessary to test whether these features would enable the tracing of a synthetic lethality condition. […] Under these conditions, normal HGPRT-positive cells can use supplied guanine to produce GMP via the salvage pathway, and survive, while HGPRT-deficient cells die.

Compound | retention of the survival plasmid over time (Clone 12 cells, GATA medium + 12.5 microgram/ml MPA, entire time period (FIG. 6)) | retention of the survival plasmid (tpzGFP to sphGFP fluorescence ratio), dose response (Clone 12 cells, GATA medium + MPA at successively higher concentrations, read after two weeks (FIG. 5)) | detection of chemical synthetic lethality (survival plasmid retention) in blind large-scale test | retention of the survival plasmid (Clone 12 cells, 96 well plates, serial dilutions of drug and of guanine, three weeks (FIGS. 7, 8))
COc1c(C)c2c(c(O)c1C/C=C(\C)CCC(=O)O)C(=O)OC2 [MPA, mycophenolic acid] | retention of the survival plasmid for the entire time period | caused increasing retention of the survival plasmid | clearly detected | –
NC(=O)c1ncn([C@@H]2O[C@H](CO)[C@@H](O)[C@H]2O)c1O [mizoribine] | – | – | clearly detected | caused retention of the survival plasmid
N[C@@H](CN(O)N=O)C(=O)O [alanosine] | – | – | not retained | –
